Laboratory results published in PubChem BioAssay (NCI).
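1) Cells in 96-well plates. 2) Compound, 48 h, 5 concentrations. 3) Linear interpolation between surrounding doses. 4) Unreached endpoint = highest concentration. GI50 = concentration required for 50% inhibition of growth. TGI: concentration producing complete growth inhibition.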

Legend:
Experiment in all cases: NCI anticancer screen, dose series, 48 h
MOLT-4 leukemia = tested on: MOLT-4 leukemia
OVCAR-5 ovarian = tested on: OVCAR-5 ovarian
SNB-75 CNS = tested on: SNB-75 CNS
EKVX NSCLC = tested on: EKVX NSCLC
T-47D breast = tested on: T-47D breast
UACC-257 melanoma = tested on: UACC-257 melanoma
SK-MEL-5 melanoma = tested on: SK-MEL-5 melanoma
A498 renal = tested on: A498 renal
LOX IMVI melanoma = tested on: LOX IMVI melanoma
DU-145 prostate = tested on: DU-145 prostate
K-562 leukemia = tested on: K-562 leukemia
UO-31 renal = tested on: UO-31 renal
MDA-MB-435 = tested on: MDA-MB-435
MDA-MB-231 breast = tested on: MDA-MB-231 breast
NCI-H460 lung = tested on: NCI-H460 lung
PC-3 prostate = tested on: PC-3 prostate
ACHN renal = tested on: ACHN renal
SK-OV-3 ovarian = tested on: SK-OV-3 ovarian
HOP-92 NSCLC = tested on: HOP-92 NSCLC
SF-268 CNS = tested on: SF-268 CNS
HCT-15 colon = tested on: HCT-15 colon
HS 578T breast = tested on: HS 578T breast
A549 NSCLC = tested on: A549 NSCLC
COLO 205 colon = tested on: COLO 205 colon
CCRF-CEM leukemia = tested on: CCRF-CEM leukemia
CAKI-1 renal = tested on: CAKI-1 renal
HT29 colon = tested on: HT29 colon
OVCAR-4 ovarian = tested on: OVCAR-4 ovarian
NCI-H23 lung = tested on: NCI-H23 lung
SW-620 colon = tested on: SW-620 colon
UACC-62 melanoma = tested on: UACC-62 melanoma
HCT-116 colon = tested on: HCT-116 colon
NCI-H226 lung = tested on: NCI-H226 lung
IGROV1 ovarian = tested on: IGROV1 ovarian
NCI-H522 lung = tested on: NCI-H522 lung
OVCAR-3 ovarian = tested on: OVCAR-3 ovarian
NCI/ADR-RES ovarian = tested on: NCI/ADR-RES ovarian
RPMI-8226 leukemia = tested on: RPMI-8226 leukemia
OVCAR-8 ovarian = tested on: OVCAR-8 ovarian
HCC-2998 colon = tested on: HCC-2998 colon
HOP-62 NSCLC = tested on: HOP-62 NSCLC
SR leukemia = tested on: SR leukemia
MCF7 breast = tested on: MCF7 breast
MALME-3M melanoma = tested on: MALME-3M melanoma
BT-549 breast = tested on: BT-549 breast
U251 CNS = tested on: U251 CNS
786-0 renal = tested on: 786-0 renal
SF-295 CNS = tested on: SF-295 CNS
KM12 colon = tested on: KM12 colon
SN12C renal = tested on: SN12C renal
SK-MEL-28 melanoma = tested on: SK-MEL-28 melanoma
RXF 393 renal = tested on: RXF 393 renal
M14 melanoma = tested on: M14 melanoma
SNB-19 CNS = tested on: SNB-19 CNS
HL-60(TB) leukemia = tested on: HL-60(TB) leukemia
TK-10 renal = tested on: TK-10 renal
SF-539 CNS = tested on: SF-539 CNS
SK-MEL-2 melanoma = tested on: SK-MEL-2 melanoma

SMILES: CCC(=O)c1ccc2c(c1)N(CCCN1CCN(CCO)CC1)c1ccccc1S2
- GI50 (MOLT-4 leukemia): 11 µM
- TGI (MOLT-4 leukemia): 26.8 µM
- GI50 (OVCAR-5 ovarian): 15.7 µM
- TGI (OVCAR-5 ovarian): 31.9 µM
- GI50 (SNB-75 CNS): 13.5 µM
- TGI (SNB-75 CNS): 27 µM
- GI50 (EKVX NSCLC): 13.1 µM
- TGI (EKVX NSCLC): 28.1 µM
- GI50 (T-47D breast): 14 µM
- TGI (T-47D breast): 31.5 µM
- GI50 (UACC-257 melanoma): 2.86 µM
- TGI (UACC-257 melanoma): 7.97 µM
- GI50 (SK-MEL-5 melanoma): 8.65 µM
- TGI (SK-MEL-5 melanoma): 21.1 µM
- GI50 (A498 renal): 8.33 µM
- TGI (A498 renal): 22.3 µM
- GI50 (LOX IMVI melanoma): 11.1 µM
- TGI (LOX IMVI melanoma): 26.5 µM
- GI50 (DU-145 prostate): 15.4 µM
- TGI (DU-145 prostate): 28.9 µM
- GI50 (K-562 leukemia): 3.24 µM
- TGI (K-562 leukemia): 9.83 µM
- GI50 (UO-31 renal): 7.82 µM
- TGI (UO-31 renal): 21.6 µM
- GI50 (MDA-MB-435): 3.24 µM
- TGI (MDA-MB-435): 12.3 µM
- GI50 (MDA-MB-231 breast): 13.1 µM
- TGI (MDA-MB-231 breast): 27.4 µM
- GI50 (NCI-H460 lung): 17.6 µM
- TGI (NCI-H460 lung): 33.5 µM
- GI50 (PC-3 prostate): 11.5 µM
- TGI (PC-3 prostate): 25.2 µM
- GI50 (ACHN renal): 16.2 µM
- TGI (ACHN renal): 32 µM
- GI50 (SK-OV-3 ovarian): 16.8 µM
- TGI (SK-OV-3 ovarian): 31.6 µM
- GI50 (HOP-92 NSCLC): 3.43 µM
- TGI (HOP-92 NSCLC): 15.2 µM
- GI50 (SF-268 CNS): 15.4 µM
- TGI (SF-268 CNS): 29.5 µM
- GI50 (HCT-15 colon): 9.88 µM
- TGI (HCT-15 colon): 28.3 µM
- GI50 (HS 578T breast): 13.3 µM
- TGI (HS 578T breast): 36.5 µM
- GI50 (A549 NSCLC): 16.2 µM
- TGI (A549 NSCLC): 32.1 µM
- GI50 (COLO 205 colon): 12.1 µM
- TGI (COLO 205 colon): 26.5 µM
- GI50 (CCRF-CEM leukemia): 9.67 µM
- TGI (CCRF-CEM leukemia): 27.9 µM
- GI50 (CAKI-1 renal): 13.4 µM
- TGI (CAKI-1 renal): 27.5 µM
- GI50 (HT29 colon): 3.98 µM
- TGI (HT29 colon): 14.7 µM
- GI50 (OVCAR-4 ovarian): 12.9 µM
- TGI (OVCAR-4 ovarian): 25.6 µM
- GI50 (NCI-H23 lung): 15.9 µM
- TGI (NCI-H23 lung): 31.4 µM
- GI50 (SW-620 colon): 16.1 µM
- TGI (SW-620 colon): 31 µM
- GI50 (UACC-62 melanoma): 2.2 µM
- TGI (UACC-62 melanoma): 4.73 µM
- GI50 (HCT-116 colon): 10.5 µM
- TGI (HCT-116 colon): 22.9 µM
- GI50 (NCI-H226 lung): 17.6 µM
- TGI (NCI-H226 lung): 33.8 µM
- GI50 (IGROV1 ovarian): 12.4 µM
- TGI (IGROV1 ovarian): 29.1 µM
- GI50 (NCI-H522 lung): 15.9 µM
- TGI (NCI-H522 lung): 32.4 µM
- GI50 (OVCAR-3 ovarian): 15.6 µM
- TGI (OVCAR-3 ovarian): 29.8 µM
- GI50 (NCI/ADR-RES ovarian): 14.7 µM
- TGI (NCI/ADR-RES ovarian): 29.4 µM
- GI50 (RPMI-8226 leukemia): 8.82 µM
- TGI (RPMI-8226 leukemia): 27.6 µM
- GI50 (OVCAR-8 ovarian): 16.9 µM
- TGI (OVCAR-8 ovarian): 32.7 µM
- GI50 (HCC-2998 colon): 11.8 µM
- TGI (HCC-2998 colon): 26.1 µM
- GI50 (HOP-62 NSCLC): 16.2 µM
- TGI (HOP-62 NSCLC): 30.3 µM
- GI50 (SR leukemia): 11.7 µM
- TGI (SR leukemia): 28.7 µM
- GI50 (MCF7 breast): 12.4 µM
- TGI (MCF7 breast): 26.9 µM
- GI50 (MALME-3M melanoma): 8.85 µM
- TGI (MALME-3M melanoma): 26.1 µM
- GI50 (BT-549 breast): 14.9 µM
- TGI (BT-549 breast): 28.9 µM
- GI50 (U251 CNS): 13.2 µM
- TGI (U251 CNS): 27.9 µM
- GI50 (786-0 renal): 13.2 µM
- TGI (786-0 renal): 26.9 µM
- GI50 (SF-295 CNS): 12.2 µM
- TGI (SF-295 CNS): 25.9 µM
- GI50 (KM12 colon): 14.9 µM
- TGI (KM12 colon): 28.7 µM
- GI50 (SN12C renal): 16.3 µM
- TGI (SN12C renal): 33 µM
- GI50 (SK-MEL-28 melanoma): 2.75 µM
- TGI (SK-MEL-28 melanoma): 7.75 µM
- GI50 (RXF 393 renal): 12.2 µM
- TGI (RXF 393 renal): 26.2 µM
- GI50 (M14 melanoma): 2.22 µM
- TGI (M14 melanoma): 4.63 µM
- GI50 (SNB-19 CNS): 18.5 µM
- TGI (SNB-19 CNS): 36.1 µM
- GI50 (HL-60(TB) leukemia): 12.7 µM
- TGI (HL-60(TB) leukemia): 30.3 µM
- GI50 (TK-10 renal): 13.9 µM
- TGI (TK-10 renal): 27.5 µM
- GI50 (SF-539 CNS): 12.2 µM
- TGI (SF-539 CNS): 27 µM
- GI50 (SK-MEL-2 melanoma): 17.7 µM
- TGI (SK-MEL-2 melanoma): 33.4 µM
